Where “and” joins values, the source holds several entries; their conditions need not be identical. Equal entries are not always repeated. Values belong to the compound of their own block, whether it stands above or below them.
Key:
[1] = Blood concentration of TRH, LHRH and glucagon after ocular instillation or i.v. injection (Example 5)
Source text: The concentrations of peptides in the blood were expressed in ng/ml.

[2] = system: blood glucose; assay: Effects of absorption enhancers plus insulin on blood glucose concentrations; assay type: in vivo, New Zealand white rabbits; conditions: for % Change in Blood Glucose Concentration / Blood Glucose Concentration After / Blood Glucose Concentration Before: eye drops 1% insulin plus 1% absorption enhancer (Control: 1% insulin only)
[3] = Effects of absorption enhancers on the penetration of insulin into eyeballs; assay type: in vivo, New Zealand white rabbits; conditions: 1% insulin plus enhancer
[4] = Blood enkephalin-equivalent concentration after ocular instillation or i.v. injection; conditions: enkephalin 50 ug i.v.
[5] = Amount of enkephalin-equivalent remaining in eye tissues at the end of 12 hr experiment
[6] = Effects of absorption enhancers on insulin penetration (blood insulin concentration)
[7] = 1% enhancer with 1% insulin eye drops

Compound: O=C(O)CNC(=O)C(CS)Cc1ccccc1 (racemic) [D,L-Thiorphan, D,L-thiorphan]
effect of added peptidase inhibitors on systemic absorption of TRH ([1]; Leu-Leu 4 mM, Bestatin 60 uM, D,L-Thiorphan 0.6 uM): did not significantly enhance the systemic absorption of TRH

Compound: C[N+](C)(C)CCCCCCCCCC[N+](C)(C)C [Decamethonium, decamethonium bromide]
% Change in Blood Glucose Concentration [2]: 8%
Blood Glucose Concentration After [2]: 83 ± 2 mg %
Blood Glucose Concentration Before [2]: 90 ± 3 mg %

Compound: CC(=O)O[C@H]1C[C@@]2(C)[C@@H](C[C@@H](O)[C@H]3[C@@]4(C)CC[C@@H](O)[C@@H](C)[C@@H]4CC[C@@]32C)/C1=C(\CCC=C(C)C)C(=O)O [Fusidic acid, sodium fusidate]
% Change in Blood Glucose Concentration [2]: 43%
Blood Glucose Concentration After [2]: 51 mg % and 51 ± 2 mg %
Blood Glucose Concentration Before [2]: 90 mg % and 90 ± 3 mg %

% of insulin taken up by the eyeball [3]: 0.0804%
Absolute amount of insulin in the eyeball [3]: 200 ng
Compound: C[C@H](CCC(=O)NCC(=O)O)[C@H]1CC[C@H]2[C@@H]3[C@H](O)C[C@@H]4C[C@H](O)CC[C@]4(C)[C@H]3C[C@H](O)[C@]12C [Glycocholate, sodium glycocholate]
% Change in Blood Glucose Concentration [2]: 13%
Blood Glucose Concentration After [2]: 94 mg % and 94 ± 4 mg %
Blood Glucose Concentration Before [2]: 108 mg % and 108 ± 7 mg %

eye-drop concentration sufficient to reach therapeutic effective blood concentration ([1]; rabbit, in vivo): 0.005%
Compound: CC(C)C[C@H](NC(=O)CNC(=O)[C@H](Cc1ccc(O)cc1)NC(=O)[C@H](CO)NC(=O)[C@H](Cc1c[nH]c2ccccc12)NC(=O)[C@H](Cc1cnc[nH]1)NC(=O)[C@@H]1CCC(=O)N1)C(=O)N[C@@H](CCCNC(=N)N)C(=O)N1CCC[C@H]1C(=O)NCC(N)=O [LHRH, luteinizing hormone-releasing hormone]

plateau blood TRH concentration ([1]; female, New Zealand white, rabbit, in vivo, topical or ocular, 1 % solution (25 ul)): 26 ng/mL
eye-drop concentration giving a therapeutic blood concentration of TRH ([1]; rabbit, in vivo): ≥ 0.0025%
time remained at the plateau ([1]; rabbit, in vivo): approximately 10 hrs
time to peak ([1]; rabbit, in vivo): 60 min
Compound: NC(=O)[C@@H]1CCCN1C(=O)[C@H](Cc1cnc[nH]1)NC(=O)[C@@H]1CCC(=O)N1 [TRH, Thyrotrophin-releasing hormone]

Compound: CC(C)C[C@H](NC(=O)[C@H](Cc1ccccc1)NC(=O)CNC(=O)CNC(=O)[C@@H](N)Cc1ccc(O)cc1)C(=O)O [enkephalin, Leucine-enkephalin (5-L-leucine)]
Tx of blood concentration decline [4]: less than 30 min
lowest point of blood concentration ([4]; in 5 hrs): 22 ng/mL
Residual enkephalin remaining in tissues: % of instilled ([5]; Choroid, 5% enkephalin): 0.0110 ± 0.008%
Residual enkephalin remaining in tissues: % of instilled ([5]; Ciliary-Body, 0.1245% enkephalin): 0.0156 ± 0.003%
Residual enkephalin remaining in tissues: % of instilled ([5]; Ciliary-Body, 1% enkephalin): 0.0108 ± 0.005%
Residual enkephalin remaining in tissues: % of instilled ([5]; Ciliary-Body, 5% enkephalin): 0.0042 ± 0.002%
Residual enkephalin remaining in tissues: % of instilled ([5]; Cornea, 1% enkephalin): 0.0601 ± 0.015%
Residual enkephalin remaining in tissues: % of instilled ([5]; Cornea, 5% enkephalin): 0.0427 ± 0.012%
Residual enkephalin remaining in tissues: % of instilled ([5]; Iris, 0.1245% enkephalin): 0.0252 ± 0.003%
Residual enkephalin remaining in tissues: % of instilled ([5]; Iris, 1% enkephalin): 0.0117 ± 0.005%
Residual enkephalin remaining in tissues: % of instilled ([5]; Lens, 0.1245% enkephalin): 0.0834 ± 0.013%
Residual enkephalin remaining in tissues: % of instilled ([5]; Retina, 0.1245% enkephalin): 0.0118 ± 0.004%
Residual enkephalin remaining in tissues: % of instilled ([5]; Retina, 5% enkephalin): 0.0036 ± 0.002%
Residual enkephalin remaining in tissues: % of instilled ([5]; Total, 0.1245% enkephalin): 0.3019%
Residual enkephalin remaining in tissues: % of instilled ([5]; Total, 1% enkephalin): 0.1713%
Residual enkephalin remaining in tissues: % of instilled ([5]; Total, 5% enkephalin): 0.1136%

Compound: polyoxyethylene sorbitan monolaurate [Tween 20]
effect on insulin absorption [6, 7]: only a slight increase in insulin absorption
Insulin peak Concentration ([6]; eye drops 1% insulin plus 1% absorption enhancer (Control: 1% insulin only), 25 ul): 8.8 ± 0.9 ng/mL
effect on blood glucose [2, 7]: a minute reduction in blood glucose concentration
% Change in Blood Glucose Concentration [2]: 14%
Blood Glucose Concentration After [2]: 77 ± 9 mg %
Blood Glucose Concentration Before [2]: 90 ± 3 mg %
% of insulin taken up by the eyeball [3]: 0.0771%
Absolute amount of insulin in the eyeball [3]: 192 ng

% of insulin taken up by the eyeball [3]: 0.5221%
Absolute amount of insulin in the eyeball [3]: 1305 ng
Compound: polyoxyethylene-9-lauryl ether [BL-9]
% Change in Blood Glucose Concentration [2]: 42%
Blood Glucose Concentration After [2]: 56 mg % and 56 ± 3 mg %
Blood Glucose Concentration Before [2]: 97 mg % and 97 ± 2 mg %
